Source: PubChem BioAssay AID1259407 (Chemical Carcinogenesis Research Information System (CCRIS), 2018)
Calls of active or inactive are those of the source. How the calls were made is not given here.

Test system: CCRIS mutagenicity, Ames/micronucleus/aberration tests
Test: CCRIS mutagenicity studies
[1] = Test System: AMES SALMONELLA TYPHIMURIUM, Strain/Indicator: TA98, Metabolic Activation: NONE, Method: PREINCUBATION
[2] = Test System: AMES SALMONELLA TYPHIMURIUM, Strain/Indicator: TA98, Metabolic Activation: NONE, Method: STANDARD PLATE
[3] = Test System: AMES SALMONELLA TYPHIMURIUM, Strain/Indicator: TA98, Metabolic Activation: RAT, LIVER, S-9, AROCLOR 1254, Method: STANDARD PLATE
[4] = Test System: AMES SALMONELLA TYPHIMURIUM, Strain/Indicator: TA100, Metabolic Activation: NONE, Method: STANDARD PLATE
[5] = Test System: AMES SALMONELLA TYPHIMURIUM, Strain/Indicator: TA100, Metabolic Activation: RAT, LIVER, S-9, AROCLOR 1254, Method: STANDARD PLATE
[6] = Test System: AMES SALMONELLA TYPHIMURIUM, Strain/Indicator: TA1535, Metabolic Activation: NONE, Method: STANDARD PLATE
[7] = Test System: AMES SALMONELLA TYPHIMURIUM, Strain/Indicator: TA1535, Metabolic Activation: RAT, LIVER, S-9, AROCLOR 1254, Method: STANDARD PLATE
[8] = Test System: AMES SALMONELLA TYPHIMURIUM, Strain/Indicator: TA1537, Metabolic Activation: NONE, Method: STANDARD PLATE
[9] = Test System: AMES SALMONELLA TYPHIMURIUM, Strain/Indicator: TA1537, Metabolic Activation: RAT, LIVER, S-9, AROCLOR 1254, Method: STANDARD PLATE
[10] = Test System: AMES SALMONELLA TYPHIMURIUM, Strain/Indicator: TA100, Metabolic Activation: NONE, Method: PREINCUBATION
[11] = Test System: AMES SALMONELLA TYPHIMURIUM, Strain/Indicator: TA97, Metabolic Activation: NONE, Method: STANDARD PLATE
[12] = Test System: AMES SALMONELLA TYPHIMURIUM, Strain/Indicator: TA97, Metabolic Activation: RAT, LIVER, S-9, AROCLOR 1254, Method: STANDARD PLATE

SMILES: CCOC(=O)/C=C/c1ccc([N+](=O)[O-])o1
- mutagenic call [1]: active; positive

SMILES: N#CCCN
- mutagenic call (Test System: AMES SALMONELLA TYPHIMURIUM, Strain/Indicator: TA98, Metabolic Activation: HAMSTER, LIVER, S-9, AROCLOR 1254, Method: STANDARD PLATE): inactive; negative
- mutagenic call [2]: inactive; negative
- mutagenic call [3]: inactive; negative
- mutagenic call (Test System: AMES SALMONELLA TYPHIMURIUM, Strain/Indicator: TA100, Metabolic Activation: HAMSTER, LIVER, S-9, AROCLOR 1254, Method: STANDARD PLATE): inactive; negative
- mutagenic call [4]: inactive; negative
- mutagenic call [5]: inactive; negative
- mutagenic call (Test System: AMES SALMONELLA TYPHIMURIUM, Strain/Indicator: TA1535, Metabolic Activation: HAMSTER, LIVER, S-9, AROCLOR 1254, Method: STANDARD PLATE): inactive; negative
- mutagenic call [6]: inactive; negative
- mutagenic call [7]: inactive; negative
- mutagenic call (Test System: AMES SALMONELLA TYPHIMURIUM, Strain/Indicator: TA1537, Metabolic Activation: HAMSTER, LIVER, S-9, AROCLOR 1254, Method: STANDARD PLATE): inactive; negative
- mutagenic call [8]: inactive; negative
- mutagenic call [9]: inactive; negative
- mutagenic call (Test System: AMES SALMONELLA TYPHIMURIUM, Strain/Indicator: TA1538, Metabolic Activation: HAMSTER, LIVER, S-9, AROCLOR 1254, Method: STANDARD PLATE): inactive; negative
- mutagenic call (Test System: AMES SALMONELLA TYPHIMURIUM, Strain/Indicator: TA1538, Metabolic Activation: NONE, Method: STANDARD PLATE): inactive; negative
- mutagenic call (Test System: AMES SALMONELLA TYPHIMURIUM, Strain/Indicator: TA1538, Metabolic Activation: RAT, LIVER, S-9, AROCLOR 1254, Method: STANDARD PLATE): inactive; negative
- mutagenic call (Test System: Mouse lymphoma, Strain/Indicator: L5178Y (tk+/tk-), Metabolic Activation: None, Method: Suspension/plate): inactive; inconclusive (previous evaluation negative)
- mutagenic call (Test System: Mouse lymphoma, Strain/Indicator: L5178Y (tk+/tk-), Metabolic Activation: Rat, Liver, S-9, Aroclor 1254, Method: Suspension/plate): inactive; negative

SMILES: Cc1ccc2cc3c4c(ccc3c3c2c1CC3)C=C[C@H](O)[C@H]4O
- mutagenic call (Test System: CHINESE HAMSTER V-79, Strain/Indicator: V-79/8-AZAGUANINE, Metabolic Activation: NONE, Method: STANDARD PLATE): active; positive

SMILES: COc1cccc(C(=O)CBr)c1
- mutagenic call [1]: inactive; negative
- mutagenic call (Test System: AMES SALMONELLA TYPHIMURIUM, Strain/Indicator: TA98, Metabolic Activation: RAT, LIVER, S-9, PCB, Method: PREINCUBATION): inactive; negative
- mutagenic call [10]: inactive; negative
- mutagenic call (Test System: AMES SALMONELLA TYPHIMURIUM, Strain/Indicator: TA100, Metabolic Activation: RAT, LIVER, S-9, PCB, Method: PREINCUBATION): inactive; negative
- mutagenic call (Test System: E. COLI, Strain/Indicator: WP2 UVRA, Metabolic Activation: NONE, Method: PREINCUBATION): inactive; negative

SMILES: O=[N+]([O-])c1cc(Cl)c(Cl)c(Cl)c1Cl
- mutagenic call (Test System: AMES SALMONELLA TYPHIMURIUM, Strain/Indicator: TA98, Metabolic Activation: HAMSTER, LIVER, S-9, AROCLOR 1254, Method: PREINCUBATION): inactive; negative
- mutagenic call [1]: inactive; negative
- mutagenic call (Test System: AMES SALMONELLA TYPHIMURIUM, Strain/Indicator: TA98, Metabolic Activation: RAT, LIVER, S-9, AROCLOR 1254, Method: PREINCUBATION): inactive; negative
- mutagenic call (Test System: AMES SALMONELLA TYPHIMURIUM, Strain/Indicator: TA100, Metabolic Activation: HAMSTER, LIVER, S-9, AROCLOR 1254, Method: PREINCUBATION): inactive; negative
- mutagenic call [10]: inactive; negative
- mutagenic call (Test System: AMES SALMONELLA TYPHIMURIUM, Strain/Indicator: TA100, Metabolic Activation: RAT, LIVER, S-9, AROCLOR 1254, Method: PREINCUBATION): inactive; negative
- mutagenic call (Test System: AMES SALMONELLA TYPHIMURIUM, Strain/Indicator: TA1535, Metabolic Activation: HAMSTER, LIVER, S-9, AROCLOR 1254, Method: PREINCUBATION): inactive; negative
- mutagenic call (Test System: AMES SALMONELLA TYPHIMURIUM, Strain/Indicator: TA1535, Metabolic Activation: NONE, Method: PREINCUBATION): inactive; negative
- mutagenic call (Test System: AMES SALMONELLA TYPHIMURIUM, Strain/Indicator: TA1535, Metabolic Activation: RAT, LIVER, S-9, AROCLOR 1254, Method: PREINCUBATION): inactive; negative
- mutagenic call (Test System: AMES SALMONELLA TYPHIMURIUM, Strain/Indicator: TA1537, Metabolic Activation: HAMSTER, LIVER, S-9, AROCLOR 1254, Method: PREINCUBATION): inactive; negative
- mutagenic call (Test System: AMES SALMONELLA TYPHIMURIUM, Strain/Indicator: TA1537, Metabolic Activation: NONE, Method: PREINCUBATION): inactive; negative
- mutagenic call (Test System: AMES SALMONELLA TYPHIMURIUM, Strain/Indicator: TA1537, Metabolic Activation: RAT, LIVER, S-9, AROCLOR 1254, Method: PREINCUBATION): inactive; negative

SMILES: CN(C)CCCNc1c2ccccc2nc2c(F)ccc([N+](=O)[O-])c12
- mutagenic call [2]: active; positive
- mutagenic call [4]: active; positive

SMILES: CCS(=O)(=O)n1ncc(Cl)c(Cl)c1=O
- mutagenic call [2]: inactive; negative
- mutagenic call [3]: inactive; negative
- mutagenic call [4]: active; positive
- mutagenic call [5]: active; positive
- mutagenic call [6]: inactive; negative
- mutagenic call [7]: inactive; negative
- mutagenic call [8]: inactive; negative
- mutagenic call [9]: inactive; negative

SMILES: O=C(O)C1Cc2c([nH]c3ccccc23)C(CO)N1 (centres undefined)
- mutagenic call [11]: inactive; negative
- mutagenic call [12]: inactive; negative
- mutagenic call [2]: inactive; negative
- mutagenic call [3]: inactive; negative
- mutagenic call [4]: inactive; negative
- mutagenic call [5]: inactive; negative

SMILES: Oc1cccc(Cl)c1
- mutagenic call [11]: active; positive
- mutagenic call [12]: active; positive
- mutagenic call [2]: active; positive
- mutagenic call [3]: active; positive
- mutagenic call [4]: active; positive
- mutagenic call [5]: inactive; negative
- mutagenic call (Test System: AMES SALMONELLA TYPHIMURIUM, Strain/Indicator: TA104, Metabolic Activation: NONE, Method: STANDARD PLATE): inactive; negative
- mutagenic call (Test System: AMES SALMONELLA TYPHIMURIUM, Strain/Indicator: TA104, Metabolic Activation: RAT, LIVER, S-9, AROCLOR 1254, Method: STANDARD PLATE): inactive; negative

SMILES: CC(=O)OCc1c2cccc3ccc4cc5cccc6ccc1c(c65)c4c32
- mutagenic call [2]: active; positive
- mutagenic call [4]: inactive; negative

SMILES: C/C=C(\C)C=O
- mutagenic call (Test System: MOUSE LYMPHOMA, Strain/Indicator: L5178Y (TK+/TK-), Metabolic Activation: NONE, Method: SUSPENSION/PLATE): active; positive. reevaluation of results: inconclusive
- mutagenic call (Test System: MOUSE LYMPHOMA, Strain/Indicator: L5178Y (TK+/TK-), Metabolic Activation: RAT, LIVER, S-9, AROCLOR 1254, Method: SUSPENSION/PLATE): inactive; negative. reevaluation of results: negative

SMILES: C1CCC2OCCOCCOCCOC3CCCCC3OCCOCCOCCOC2C1 (centres undefined)
- mutagenic call [2]: inactive; negative
- mutagenic call [3]: inactive; negative
- mutagenic call [4]: inactive; negative
- mutagenic call [5]: inactive; negative
- mutagenic call (Test System: AMES SALMONELLA TYPHIMURIUM, Strain/Indicator: TA1530, Metabolic Activation: NONE, Method: STANDARD PLATE): inactive; negative
- mutagenic call (Test System: AMES SALMONELLA TYPHIMURIUM, Strain/Indicator: TA1530, Metabolic Activation: RAT, LIVER, S-9, AROCLOR 1254, Method: STANDARD PLATE): inactive; negative
- mutagenic call [8]: inactive; negative
- mutagenic call [9]: inactive; negative

SMILES: CN1COCN(Cc2cnc(Cl)s2)/C1=N/[N+](=O)[O-]
- mutagenic call (End Point: IN VIVO MICRONUCLEUS, Test System: BONE MARROW POLYCHROMATIC ERYTHROCYTES, Species: RAT, Strain/Sex: WISTAR/FEMALE, Route: ORAL (GAVAGE)): active; positive
- mutagenic call (End Point: IN VIVO MICRONUCLEUS, Test System: POLYCHROMATIC ERYTHROCYTES FROM COLONIC CRYPT EPITHELIAL CELLS, Species: RAT, Strain/Sex: WISTAR/FEMALE, Route: ORAL (GAVAGE)): active; positive
